Experiments:
SK-MEL-5 = assay: NCI-60 SRB screen; format: cell-based, human; conditions: SK-MEL-5;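 for IC50: half-maximal inhibitory concentration read as cell viability unlike GI50 net growth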
UACC-62 = assay: NCI-60 SRB screen; format: cell-based, human; conditions: UACC-62;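 for IC50: half-maximal inhibitory concentration read as cell viability unlike GI50 net growth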
OVCAR-4 = assay: NCI-60 SRB screen; format: cell-based, human; conditions: OVCAR-4;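 for IC50: half-maximal inhibitory concentration read as cell viability unlike GI50 net growth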
NCI-H322M = assay: NCI-60 SRB screen; format: cell-based, human;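 for IC50: half-maximal inhibitory concentration read as cell viability unlike GI50 net growth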
K-562 = assay: NCI-60 SRB screen; format: cell-based, human; conditions: K-562
ACHN = assay: NCI-60 SRB screen; format: cell-based
MDA-MB-435 = assay: NCI-60 SRB screen; format: cell-based
OVCAR-3 = assay: NCI-60 SRB screen; format: cell-based, human; conditions: OVCAR-3
HCT-116 = assay: NCI-60 SRB screen; format: cell-based, human; conditions: HCT-116
SN12C = assay: NCI-60 SRB screen; format: cell-based, human; conditions: SN12C
MALME-3M = assay: NCI-60 SRB screen; format: cell-based, human
OVCAR-8 = assay: NCI-60 SRB screen; format: cell-based, human; conditions: OVCAR-8
HT-29 = assay: NCI-60 SRB screen; format: cell-based
SF-295 = assay: NCI-60 SRB screen; format: cell-based, human; conditions: SF-295
MOLT-4 = assay: NCI-60 SRB screen; format: cell-based; conditions: MOLT-4
M14 = assay: NCI-60 SRB screen; format: cell-based, human; conditions: M14
UACC-257 = assay: NCI-60 SRB screen; format: cell-based, human; conditions: UACC-257
NCI-H23 = assay: NCI-60 SRB screen; format: cell-based, human; conditions: NCI-H23
SF-268 = assay: NCI-60 SRB screen; format: cell-based, human; conditions: SF-268
SK-MEL-2 = assay: NCI-60 SRB screen; format: cell-based, human; conditions: SK-MEL-2
SW-620 = assay: NCI-60 SRB screen; format: cell-based; conditions: SW-620
[1] = system: panel of 60 cancer cell lines; assay: NCI-60 SRB screen, mean or range over the panel; format: cell-based, human; conditions: Homo sapiens
[2] = Homo sapiens, single dose 10^−5 M, read-out: Growth inhibition (%)
[3] = Homo sapiens, HT-29, HT29, five dose

## N#CC1C(=O)NC(c2ccccc2[N+](=O)[O-])c2sc3c(F)cccc3c21 (stereo not shown) [Compound 5c, 4-Cyano-8-fluoro-1-(2-nitrophenyl)-1,2-dihydro[1]benzothieno[2,3-c] pyridin-3(4H)-one]
SK-MEL-5; Homo sapiens, five dose
  GI50: 13 µM
  IC50: 20.9 µM
SK-MEL-5; [2]
  inhibition at 10 µM: 24.9%
SK-MEL-5; five dose
  TGI: 67.60 µM
UACC-62; Homo sapiens, five dose
  GI50: 0.36 µM
  IC50: 1.78 µM
UACC-62; [2]
  inhibition at 10 µM: 90.6%
UACC-62; five dose
  TGI: 47.20 µM
OVCAR-4; Homo sapiens, five dose
  GI50: 1.61 µM
  IC50: 24.5 µM
OVCAR-4; [2]
  inhibition at 10 µM: 100%
OVCAR-4; five dose
  TGI: 100 µM
NCI-H322M; Homo sapiens, five dose
  GI50: 7.37 µM
  IC50: 23.4 µM
NCI-H322M; [2]
  inhibition at 10 µM: 98%
NCI-H322M; five dose
  TGI: 100 µM
K-562; Homo sapiens, K562, five dose
  GI50: 1.98 µM
  IC50: 3.16 µM
K-562; Homo sapiens, K562, single dose 10^−5 M, read-out: Growth inhibition (%)
  inhibition at 10 µM: 64.1%
K-562; five dose
  TGI: 100 µM
ACHN; Homo sapiens, five dose
  GI50: 15.7 µM
  IC50: 29.5 µM
  LC50 (NCI-60 lethal concentration, 50% net cell kill): > 100 µM
ACHN; [2]
  inhibition at 10 µM: 34.3%
ACHN; five dose
  TGI: 100 µM
MDA-MB-435; Homo sapiens, MDA-MB-435
  GI50: 27.2 µM
  IC50: 38 µM
MDA-MB-435; Homo sapiens, MDA-MB-435, read-out: Growth inhibition (%)
  inhibition at 10 µM: -1.7%
MDA-MB-435; Homo sapiens, MDA-MB-435, five dose
  LC50 (50% lethal concentration): > 100 µM
MDA-MB-435; MDA-MB-435, five dose
  TGI: 100 µM
OVCAR-3; Homo sapiens, five dose
  GI50: 0.32 µM
  IC50: 0.676 µM
OVCAR-3; [2]
  inhibition at 10 µM: 114%
OVCAR-3; five dose
  TGI: 87.80 µM
HCT-116; five dose
  TGI: 44.50 µM
HCT-116; Homo sapiens, five dose
  GI50: 0.14 µM
  IC50: 0.195 µM
HCT-116; [2]
  inhibition at 10 µM: 89%
SN12C; Homo sapiens, SN 12 C, single dose 10^−5 M, read-out: Growth inhibition (%)
  inhibition at 10 µM: 20.9%
SN12C; Homo sapiens, five dose
  GI50: 18.6 µM
  IC50: 34.7 µM
SN12C; five dose
  TGI: 100 µM
MALME-3M; Homo sapiens, five dose
  GI50: 22.6 µM
  IC50: 83.2 µM
MALME-3M; [2]
  inhibition at 10 µM: 25.3%
MALME-3M; five dose
  TGI: 100 µM
OVCAR-8; Homo sapiens, five dose
  GI50: 12 µM
  IC50: 20.4 µM
OVCAR-8; [2]
  inhibition at 10 µM: 25.1%
OVCAR-8; five dose
  TGI: 100 µM
HT-29; HT29, five dose
  TGI: 100 µM
HT-29; [3]
  GI50: 19.6 µM
  IC50: 25.7 µM
  LC50 (concentration killing 50% of cells): > 100 µM
HT-29; Homo sapiens, HT-29, single dose 10^−5 M, read-out: Growth inhibition (%)
  inhibition at 10 µM: 14.7%
SF-295; Homo sapiens, five dose
  GI50: 0.6 µM
  IC50: 10.5 µM
SF-295; [2]
  inhibition at 10 µM: 79.2%
SF-295; five dose
  TGI: 100 µM
MOLT-4; Homo sapiens, five dose
  GI50: 19.1 µM
  IC50: 30.9 µM
  LC50 (50% lethal concentration): > 100 µM
MOLT-4; [2]
  inhibition at 10 µM: 13.5%
MOLT-4; five dose
  TGI: 100 µM
M14; Homo sapiens, five dose
  GI50: 16.3 µM
  IC50: 28.2 µM
M14; [2]
  inhibition at 10 µM: 7.3%
M14; five dose
  TGI: 100 µM
UACC-257; Homo sapiens, UACC-275 (so in the source), single dose 10^−5 M, read-out: Growth inhibition (%)
  inhibition at 10 µM: 137%
UACC-257; Homo sapiens, five dose
  GI50: 1.73 µM
  IC50: 5.89 µM
UACC-257; five dose
  TGI: 100 µM
NCI-H23; Homo sapiens, five dose
  GI50: 7.33 µM
  IC50: 19.5 µM
NCI-H23; [2]
  inhibition at 10 µM: 32.9%
NCI-H23; five dose
  TGI: 100 µM
SF-268; Homo sapiens, five dose
  GI50: 16.4 µM
  IC50: 46.8 µM
SF-268; [2]
  inhibition at 10 µM: 14.4%
SF-268; five dose
  TGI: 100 µM
SK-MEL-2; Homo sapiens, five dose
  GI50: 12.7 µM
  IC50: 33.9 µM
SK-MEL-2; [2]
  inhibition at 10 µM: 7.4%
SK-MEL-2; five dose
  TGI: 100 µM
SW-620; Homo sapiens, five dose
  GI50: 0.37 µM
  IC50: 0.676 µM
  LC50 (50% lethal concentration): > 100 µM
SW-620; [2]
  inhibition at 10 µM: 88.1%
SW-620; five dose
  TGI: 100 µM
[1]; mean graph midpoint over all tested cell lines, five dose, read-out: MG-MID GI50
  GI50: 0.21 µM
[1]; mean over the cell lines, single dose 10^−5 M, read-out: Mean growth inhibition (%)
  inhibition at 10 µM: 46.9%

Reference: publication PMC8330742, “New benzothieno[2,3-c]pyridines as non-steroidal CYP17 inhibitors: design, synthesis, anticancer screening, apoptosis induction, and in silico ADME profile studies” (Journal of Enzyme Inhibition and Medicinal Chemistry, 2021)
